Measurements as given in ChEMBL document CHEMBL1201862, “PubChem BioAssay data set” (2004).
Calls of active or inactive are those of the source.

How the values were obtained:
[1] = disruptors of CAL PDZ reporter peptide binding – biochemical, fluorescence polarization, untagged CAL PDZ, dry powder, dose response (AID 602255); type: functional
[2] = molecular target: T1, Sentrin-specific protease 7 (Homo sapiens, UniProt Q9BQF6); assay: inhibition of human SENP7 cleavage activity – biochemical, luminescence, set 2, SAR follow-up (AID 588600); type: functional
T1 sequence (Q9BQF6 whole entry): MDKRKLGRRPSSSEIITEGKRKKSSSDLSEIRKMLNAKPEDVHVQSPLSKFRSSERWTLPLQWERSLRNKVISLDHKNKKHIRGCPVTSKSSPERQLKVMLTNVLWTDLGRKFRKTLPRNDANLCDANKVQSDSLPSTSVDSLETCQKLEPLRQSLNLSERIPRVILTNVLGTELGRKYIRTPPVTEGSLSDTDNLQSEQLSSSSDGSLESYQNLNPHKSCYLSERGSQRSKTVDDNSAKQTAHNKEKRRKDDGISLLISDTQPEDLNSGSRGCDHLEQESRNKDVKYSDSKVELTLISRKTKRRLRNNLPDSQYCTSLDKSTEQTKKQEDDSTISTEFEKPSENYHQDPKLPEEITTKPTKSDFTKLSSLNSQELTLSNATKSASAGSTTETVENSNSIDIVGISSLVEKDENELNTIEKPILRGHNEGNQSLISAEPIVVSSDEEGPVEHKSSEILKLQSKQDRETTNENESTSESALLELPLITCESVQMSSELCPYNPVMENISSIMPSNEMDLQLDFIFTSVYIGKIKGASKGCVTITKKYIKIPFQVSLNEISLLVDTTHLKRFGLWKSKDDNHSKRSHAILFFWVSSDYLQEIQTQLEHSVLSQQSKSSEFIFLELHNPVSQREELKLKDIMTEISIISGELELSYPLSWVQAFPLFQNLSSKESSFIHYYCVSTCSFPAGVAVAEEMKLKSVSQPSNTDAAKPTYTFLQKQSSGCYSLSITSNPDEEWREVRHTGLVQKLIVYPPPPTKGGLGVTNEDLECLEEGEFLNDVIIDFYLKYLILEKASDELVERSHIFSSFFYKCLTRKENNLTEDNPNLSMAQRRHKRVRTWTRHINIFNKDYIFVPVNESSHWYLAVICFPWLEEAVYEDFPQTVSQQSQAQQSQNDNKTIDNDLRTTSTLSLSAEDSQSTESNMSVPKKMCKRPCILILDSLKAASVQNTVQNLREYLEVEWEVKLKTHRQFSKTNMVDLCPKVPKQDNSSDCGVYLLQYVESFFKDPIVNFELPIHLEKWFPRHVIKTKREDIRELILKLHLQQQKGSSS

[3] = molecular target: T2, Nuclear receptor subfamily 0 group B member 1 (Homo sapiens, UniProt P51843); assay: Luminescence-based cell-based high throughput dose response assay for inhibitors of the orphan nuclear receptor subfamily 0, group B, member 1 (DAX1; NR0B1). [Related pubchem assays (depositor defined):AID504766, AID504790]; type: functional
T2 sequence (P51843 whole entry): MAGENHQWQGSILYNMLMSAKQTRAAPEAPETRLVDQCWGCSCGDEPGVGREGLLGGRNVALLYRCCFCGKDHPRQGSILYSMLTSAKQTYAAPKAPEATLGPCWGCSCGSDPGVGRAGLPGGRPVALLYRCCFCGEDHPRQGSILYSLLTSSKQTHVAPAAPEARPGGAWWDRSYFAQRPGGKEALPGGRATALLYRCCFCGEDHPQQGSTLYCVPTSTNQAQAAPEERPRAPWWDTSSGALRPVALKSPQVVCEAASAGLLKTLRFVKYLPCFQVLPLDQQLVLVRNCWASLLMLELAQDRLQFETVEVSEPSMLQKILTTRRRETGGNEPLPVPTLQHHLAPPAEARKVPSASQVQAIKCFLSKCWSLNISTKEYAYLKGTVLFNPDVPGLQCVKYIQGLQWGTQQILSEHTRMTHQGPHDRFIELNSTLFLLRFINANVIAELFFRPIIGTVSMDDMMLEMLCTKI

[4] = molecular target: T1, Sentrin-specific protease 7; assay: inhibition of human SENP7 cleavage activity – biochemical, luminescence, SAR follow-up (AID 504497); type: functional
Nonstructural protein 1 = Nonstructural protein 1 (Influenza A virus, UniProt Q194T2); type: functional, Influenza A virus (A/California/07/2009(H1N1))
[5] = molecular target: T3, Heat shock factor protein 1 (Mus musculus, UniProt P38532); assay: decrease of HSF1-responsive luciferase luminescence – cell-based, NIH3T3, dose retest, confirmation (AID 2382); type: functional;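 note: NIH3T3 fibroblasts with HSF1-driven luciferase reporter stressed by proteasome inhibitor MG132; luminescence from HSF1-driven luciferase expression after 8 hours of MG132 stress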
T3 sequence (P38532 whole entry): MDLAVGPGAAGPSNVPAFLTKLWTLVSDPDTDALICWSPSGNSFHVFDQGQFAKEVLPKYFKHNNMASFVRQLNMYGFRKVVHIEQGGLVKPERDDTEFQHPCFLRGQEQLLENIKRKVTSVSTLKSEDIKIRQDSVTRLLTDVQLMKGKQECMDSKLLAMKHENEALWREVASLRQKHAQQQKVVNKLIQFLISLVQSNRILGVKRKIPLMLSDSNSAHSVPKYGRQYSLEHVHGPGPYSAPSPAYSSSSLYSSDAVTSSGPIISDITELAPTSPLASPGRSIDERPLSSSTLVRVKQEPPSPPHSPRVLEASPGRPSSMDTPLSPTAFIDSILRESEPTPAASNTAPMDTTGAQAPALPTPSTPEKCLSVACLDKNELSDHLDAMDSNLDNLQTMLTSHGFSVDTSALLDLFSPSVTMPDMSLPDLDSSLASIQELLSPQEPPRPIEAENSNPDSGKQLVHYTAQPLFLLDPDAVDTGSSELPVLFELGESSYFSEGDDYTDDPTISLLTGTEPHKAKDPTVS

[6] = viability of HCT116 lacking mutant beta-catenin – cell-based, human colon tumor, dose response (AID 1045); type: functional;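 note: HCT116 colon tumor cells with beta catenin knocked out; cells exposed to compound for 60 hours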
BJ = assay: BJ-TERT-LT-ST fibroblast viability loss – cell-based, RAS-independent, luminescence, dose response (AID 1935); type: functional; settings: Homo sapiens;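 note: BJ fibroblasts immortalized with TERT plus LT and ST oncogenes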
[7] = general cell-killing toxicity readout – plate reader, dry powder samples, cytotoxicity control for PAX8 inhibitor project, dose response (AID 743021); type: functional, cell-based

Sequence of Nonstructural protein 1 (Q194T2 whole entry): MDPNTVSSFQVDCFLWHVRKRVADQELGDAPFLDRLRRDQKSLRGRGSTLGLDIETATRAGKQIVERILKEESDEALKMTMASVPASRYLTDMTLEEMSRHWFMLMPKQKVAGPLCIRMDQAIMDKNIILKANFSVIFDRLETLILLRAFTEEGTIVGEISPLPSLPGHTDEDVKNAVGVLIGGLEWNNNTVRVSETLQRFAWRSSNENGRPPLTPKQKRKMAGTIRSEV

With `O=C(O)CSc1cc(NS(=O)(=O)c2ccc(Cl)cc2)c2ccccc2c1O` the AC50 [1] was 56.1 µM (active).
With `Oc1ccccc1/C=C/c1noc(-c2ccccc2O)n1` the IC50 [2] was 43.8 µM (active), the IC50 [3] was > 67.5 µM (inactive) and the IC50 [4] was 2.5 µM (active). The EC50 (cells) was > 67.6 µM (inactive).
For `Cc1cccc(N=Nc2ccc(N(C)C)cc2)c1`, the IC50 (Nonstructural protein 1) was 31.6 µM (active).
In the case of `Cc1nn(-c2ccccc2)c(Cl)c1CN(C(=O)CCl)c1ccc(Cl)cc1`, the EC50 [5] is reported as 1.57 µM (active), the EC50 [6] is reported as 4.11 µM (active) and the EC50 (BJ) is reported as 3.36 µM (inconclusive). For the same compound, the AC50 [7] was 6.9 µM (active).
